We go through eight compounds from EP4578861A1, “NOVEL TRICYCLIC HETEROCYCLIC CARBALDEHYDE COMPOUND AND PHARMACEUTICAL COMPOSITION, CONTAINING SAME, FOR IRE1ALPHA INHIBITION” (Hanmi Pharm. Co., Ltd., priority 2022, dated 2024).

The term IC50 denotes the concentration at which inhibition is half-maximal.

SMILES strings stand for the structures.

One assay deals with spliced XBP1. Description: Spliced XBP1 mRNA measurement test (RT-PCR, tunicamycin-induced ER stress in MCF-7 cells). It is filed as cell-based. As to conditions: Homo sapiens, MCF7, compound pre-treated for 1 hour, then 2 µg/mL tunicamycin for 6 or 24 hours, spliced XBP1 corrected by total XBP1. The protocol:
With respect to these synthetic compounds, reverse transcription polymerase chain reaction (RT-PCR) experiments were conducted on MCF-7 cancer cells to confirm the effect thereof on the mRNA and protein amounts of spliced XBP1, which is the target of IRE endonuclease. A reverse transcription polymerase chain reaction is a test method in which RNA is extracted from cells, reverse transcriptase is used to make cDNA, and relative mRNA expression level is measured through a polymerase chain reaction.
Briefly, MCF-7 cells were seeded in a 12-well plate and cultured in an incubator including 5% CO2 for one day. On the next day, compounds, which were 10-fold serially diluted from 10,000 nM, were pre-treated for 1 hour, and then, treated with 2 µg/mL tunicamycin for 6 or 24 hours to induce endoplasmic reticulum stress, followed by cell lysis to obtain RNA. RNA was subjected to the procedure of RNeasy Kits (Qiagen, 74106), and 5 µg of RNA sample was dissolved in a sample including reverse transcriptase and dNTP, and reverse transcription reaction was performed with a thermal cycler. The amount of mRNA of each of spliced XBP1 and total XBP1 was measured by a polymerase chain reaction through real time PCR by mixing each cDNA sample with a PCR reaction mixture including a primer pair capable of binding specifically to each target and SYBR green dye. The expression level of spliced XBP1 was corrected by the total expression level of XBP1, and the relative expression levels of spliced XBP1 between samples were compared and analyzed.
On to `CCN(CC)C(=O)Cc1c(C)c2c3c(c(O)c(C=O)c2oc1=O)OCCC3` [Example 25, N,N-diethyl-2-(5-formyl-6-hydroxy-1-methyl-3-oxo-3,8,9,10-tetrahydropyrano[3,2-f]chromen-2-yl)acetamide], for which the IC50 was less than 100 nM.
Still for that read-out and setting: to `CC(=O)N1CCN(C(=O)Cc2c(C)c3c4c(c(O)c(C=O)c3oc2=O)OCCC4)CC1` [Example 26, 2-(2-(4-acetylpiperazin-1-yl)-2-oxoethyl)-6-hydroxy-1-methyl-3-oxo-3,8,9,10-tetrahydropyrano[3,2-f]chromene-5-carbaldehyde] belongs no less than 200 nM; to `Cc1c(CC(=O)N2CC3CC2CO3)c(=O)oc2c(C=O)c(O)c3c(c12)CCCO3` (centres unmarked) [Example 27, 2-(2-(2-oxa-5-azabicyclo[2.2.1]heptan-5-yl)-2-oxoethyl)-6-hydroxy-1-methyl-3-oxo-3,8,9,10-tetrahydropyrano[3,2-f]chromene-5-carbaldehyde], less than 100 nM.
Regarding `Cc1c(CC(=O)N2CCSCC2)c(=O)oc2c(C=O)c(O)c3c(c12)CCCO3` [Example 28, 6-hydroxy-1-methyl-3-oxo-2-(2-oxo-2-thiomorpholinoethyl)-3,8,9,10-tetrahydropyrano[3,2-f]chromene-5-carbaldehyde], the IC50 was in the range of 100 to 200 nM.
Still for that read-out and setting: to `Cc1c(CC(=O)NCCN2CCOCC2)c(=O)oc2c(C=O)c(O)c3c(c12)CCCO3` [Example 29, 2-(5-formyl-6-hydroxy-1-methyl-3-oxo-3,8,9,10-tetrahydropyrano[3,2-f]chromen-2-yl)-N-(2-morpholinoethyl)acetamide] belongs no less than 200 nM; to `Cc1c(CC(=O)N2CCSC2)c(=O)oc2c(C=O)c(O)c3c(c12)CCCO3` [Example 30, 6-hydroxy-1-methyl-3-oxo-2-(2-oxo-2-(thiazolidin-3-yl)ethyl)-3,8,9,10-tetrahydropyrano[3,2-f]chromene-5-carbaldehyde], less than 100 nM; to `Cc1c(CC(=O)N2CCNCC2)c(=O)oc2c(C=O)c(O)c3c(c12)CCCO3` [Example 31, 6-hydroxy-1-methyl-3-oxo-2-(2-oxo-2-(piperazin-1-yl)ethyl)-3,8,9,10-tetrahydropyrano[3,2-f]chromene-5-carbaldehyde], no less than 200 nM.

Still in this assay, the particulars now being: compound pre-treated for 1 hour, then 2 µg/mL tunicamycin for 6 or 24 hours, spliced XBP1 corrected by total XBP1.
As for `COc1cc2c(C)c(CC(=O)N3CCOCC3)c(=O)oc2c(C=O)c1O` [MKC8866, reference compound], the IC50 is less than 100 nM.
